In PubChem BioAssay (NCI):
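Results reflect a 48-hour exposure of cells in 96-well plates to compound at five concentrations. GI50 is the concentration that inhibits growth by half. TGI: total growth inhibition.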

Tests used:
Experiment in all cases: inhibition of tumour cell growth, NCI panel, 48 h
[1] = system: IGROV1 ovarian
[2] = system: ACHN renal
[3] = system: SK-MEL-28 melanoma
[4] = system: CCRF-CEM leukemia
[5] = system: KM12 colon
[6] = system: M14 melanoma
[7] = system: HL-60(TB) leukemia
[8] = system: HCT-116 colon
[9] = system: OVCAR-4 ovarian
[10] = system: BT-549 breast

Row | Structure (SMILES) | TGI [1] [µM] | TGI [2] [µM] | TGI [3] [µM] | TGI [4] [µM] | TGI [5] [µM] | TGI [6] [µM] | TGI [7] [µM] | TGI [8] [µM] | TGI [9] [µM] | GI50 [1] [µM] | GI50 [10] [µM] | TGI [10] [µM] | GI50 [2] [µM] | GI50 [3] [µM] | GI50 [4] [µM] | GI50 [5] [µM] | GI50 [8] [µM] | GI50 [9] [µM] | GI50 [6] [µM]
1 | COc1cc(-c2nnc3n2NC=C(C(=O)O)S3)cc(OC)c1OC | > 100 | > 100 | > 100 | > 67.5 | > 100 | > 100 | > 73.4 | > 68.8 | > 87.5 |  |  |  |  |  |  |  |  |  | 
2 | C[P+](C)(C)c1ccccc1 | > 100 | > 100 | > 100 | > 100 | > 100 | > 100 | > 100 | > 100 | > 100 |  |  |  |  |  |  |  |  |  | 
3 | COc1cc2c(cc1OC)C1Cc3cc(OC)c(OC)cc3N1CC2 (configuration not stated) | > 100 | 43 | > 100 | > 100 | > 100 | 53.4 | 53.2 | > 100 | 57.7 |  |  |  |  |  |  |  |  |  | 
4 | C=C1C(O)C2C(=C(C)C13CC3)C(=O)C(C)(C)C2OC (configuration not stated) | > 100 | > 100 | > 100 | > 100 | > 100 |  |  | > 100 | > 100 | > 100 | > 100 | > 100 | > 100 | > 100 | 78.3 | > 100 | > 100 | > 100 | 
5 | C1COCCSC2=C(SCCO1)SC(=C1SC3=C(SCCOCCOCCS3)S1)S2 | > 100 | > 100 | > 100 | > 100 | > 100 | > 100 | > 100 | > 100 | > 100 |  |  |  |  |  |  |  |  |  | 
6 | CCC[CH2][Sn]1([CH2]CCC)[O]CC(COc2c(Cl)cc(Cl)cc2Cl)[O]1 (configuration not stated) | 3.46 | 3.17 | 2.82 |  | 3.54 | 3.13 | 0.673 | 3.03 | 3.76 | 1.8 |  |  | 1.77 | 1.39 |  | 1.8 | 1.67 | 1.91 | 1.72
7 | O=C1C=CC(=CC=C2C=CN(CCCCCCCCCCC(=O)NCCCCCCCCCCCC(=O)O)C=C2)C=C1 | > 100 | > 100 | > 100 | > 100 | > 100 | > 100 | > 100 | > 100 | > 100 |  |  |  |  |  |  |  |  |  | 
8 | Cc1cc(NCCCCNc2ccnc3cc(Cl)ccc23)nc(Nc2ccc(C(=O)N3CCCCC3)cc2)n1 | 6.22 | 9.28 | 3.37 | 7.55 | 4.21 | 0.383 |  |  | 5.52 | 2.27 | 1.69 | 3.21 | 3.01 | 1.68 | 0.608 | 1.91 |  | 1.6 | 0.197
9 | COc1ccc(/C=C/c2cnccn2)cc1OC | > 10 | > 10 | > 10 |  | > 10 | > 10 |  | > 10 | > 10 |  |  | > 10 |  |  |  |  |  |  | 
10 | NC(CCc1ncc(C(=O)O)s1)C(=O)O (configuration not stated) | > 100 | > 100 | > 100 | > 100 | > 100 | > 100 |  | > 100 |  |  |  |  |  |  |  |  |  |  | 
